Bounds are passed on as bounds.

Test [1] addresses T1, MOF-KAT8 (Homo sapiens, UniProt Q9H7Z6).
T1 sequence (Q9H7Z6 with tags, fused parts or gaps): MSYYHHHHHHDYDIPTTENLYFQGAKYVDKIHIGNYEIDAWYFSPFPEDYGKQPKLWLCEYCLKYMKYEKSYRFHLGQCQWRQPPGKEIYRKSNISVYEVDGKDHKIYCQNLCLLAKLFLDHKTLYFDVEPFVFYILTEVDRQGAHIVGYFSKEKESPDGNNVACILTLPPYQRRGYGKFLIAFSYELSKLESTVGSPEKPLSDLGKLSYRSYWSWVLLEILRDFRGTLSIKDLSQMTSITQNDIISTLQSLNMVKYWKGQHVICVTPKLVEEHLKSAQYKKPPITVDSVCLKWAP
In words: biochemical.

The target of test [2] is TIP60-KAT5 (Homo sapiens, UniProt Q92993). In words: Acetyltransferase biochemical assay (AlphaScreen), KAT5.
For test [3], the target named is MOZ-KAT6A (Homo sapiens, UniProt Q92794, A567V). In words: Acetyltransferase biochemical assay (AlphaScreen), KAT6A. (Alpha assays give light when donor and acceptor beads are brought close together.)
Test [4] addresses T2, QKF-KAT6B (Homo sapiens, UniProt Q8WYB5).
T2 construct: purchased SignalChem K315-381BG
In words: Acetyltransferase biochemical assay (AlphaScreen), KAT6B. The following applies: 8 nM KAT6B, 1 μM AcCoA, 100 nM histone H3.1. The text has this: KAT6B was obtained from SignalChem, catalog ID: K315-381BG

The target of test [5] is HBO-KAT7 (Homo sapiens, UniProt O95251). In words: Acetyltransferase biochemical assay (AlphaScreen), KAT7.
Test [6] concerns acetylation of the histone H3 Lysine 14 marker in U2OS cells. In words: Histone H3 Lysine 14 Acetylation Biomarker Assay. The test is classed as cell-based. The following applies: Homo sapiens, serum free medium, 24 hours incubation, read-out: IC50, inhibition of histone H3 Lysine 14 acetylation. The protocol: Compounds were tested for their ability to inhibit acetylation of the histone H3 Lysine 14 marker in the following assay:
The cell line U2OS was seeded at a density of 3,000 cells per well in 384-well optical quality tissue culture plates in RPMI medium supplemented with 10% foetal bovine serum and 10 mM Hepes. The cells were allowed to adhere for 24 hours under standard culture conditions (37 degree Celsius, 5% CO2). At the end of this period the cells were washed with serum free medium. […] After incubation for 24 hours, the cells were fixed with 4% formaldehyde in PBS for 15 minutes at room temperature, washed with phosphate buffer saline and blocked with blocking buffer containing 0.2% TritonX100 and 2% BSA. Anti-H3K14ac specific antibody (Cell Signalling Technologies) in blocking buffer was added and incubated overnight at 4 degree Celsius. After washing, a secondary antibody labelled with AlexaFluor 488 dye (ThermoFisher) and Hoechst 33342 (1 μg/mL, Life Technologies) were added for 2 hours incubation at room temperature. Plates were washed and read on a PerkinElmer Opera HCS high content imaging platform. Using a Columbus image analysis pipeline, individual nuclei were located by Hoechst 33342 stain and the acetylation level was calculated from the AlexaFluor 488-related intensity in the same area.

Test [7] has as its system histone H2A.Z Lysine 7 acetylation marker in U2OS cells. In words: H2A.Z Lysine 7 Acetylation Biomarker Assay. In kind it is cell-based. The following applies: Homo sapiens, serum free medium, 24 hours incubation, read-out: IC50, inhibition of histone H2A.Z Lysine 7 acetylation. How it is done:
Compounds were tested for their ability to inhibit the histone H2A.Z Lysine 7 acetylation marker in the following assay:
The cell line U2OS was seeded at a density of 3,000 cells per well in 384-well optical quality tissue culture plates in RPMI medium supplemented with 10% foetal bovine serum and 10 mM Hepes. The cells were allowed to adhere for 24 hours under standard culture conditions (37 degree Celsius, 5% CO2). At the end of this period the cells were washed with serum free medium. […] 2018, at 30 μM concentration. After incubation for 24 hours, the cells were fixed with 4% formaldehyde in PBS for 15 minutes at room temperature, washed with phosphate buffer saline and blocked with blocking buffer containing 0.2% TritonX100 and 2% BSA. Anti-H2A.ZK7ac specific antibody (Abcam) in blocking buffer was added and incubated overnight at 4 degree Celsius. After washing, a secondary antibody labelled with AlexaFluor 488 dye (ThermoFisher) and Hoechst 33342 (1 μg/mL, Life Technologies) were added for 2 hours incubation at room temperature. Plates were washed and read on a PerkinElmer Opera HCS high content imaging platform. Using a Columbus image analysis pipeline, individual nuclei were located by Hoechst 33342 stain and the acetylation level was calculated from the AlexaFluor 488-related intensity in the same area.

Test [8] deals with acetylation of the histone H3K23 marker in U2OS cells. In words: Histone H3 Lysine 23 Acetylation Biomarker Assay. In kind it is cell-based. The following applies: Homo sapiens, 24 hours incubation, read-out: IC50, inhibition of histone H3K23 acetylation. The protocol:
Compounds were tested for their ability to inhibit acetylation of the histone H3K23 marker in the following assay:
The cell line U2OS was seeded at a density of 9,000 cells per well in 96 well optical quality tissue culture plates in RPMI medium and 10% foetal bovine serum, and allowed to adhere for 24 hours under standard culture conditions (37 degree Celsius, 5% CO2). At the end of this period the medium was aspirated. […] After incubation for 24 hours, the cells were fixed with 3.7% formaldehyde in PBS for 20 minutes at room temperature, washed (5×5 minutes) with phosphate buffer saline containing 0.1% Tween 20 and blocked with Odyssey blocking buffer (LI-COR, Lincoln, Nebr.) containing 0.1% TritonX100. Anti-H3K23ac specific antibody (Abcam ab177275) in Odyssey blocking buffer containing 0.1% Tween 20 was added and incubated for 16 hours at 4 degree Celsius. After washing (as above), a secondary antibody labelled with Alexa647 dye (LifeTechnologies) and Hoechst 33342 (1 μg/mL, SigmaAldrich) were added for 1 hour incubation. Plates were washed as previously and read on a PerkinElmer Phenix high content imaging platform. Using a Columbus image analysis pipeline, individual nuclei were located by Hoechst 33342 stain and the acetylation level was calculated from the Alexa647-related intensity in the same area.

Sequence of TIP60-KAT5 (Q92993 with tags, fused parts or gaps isoform Q92993-2): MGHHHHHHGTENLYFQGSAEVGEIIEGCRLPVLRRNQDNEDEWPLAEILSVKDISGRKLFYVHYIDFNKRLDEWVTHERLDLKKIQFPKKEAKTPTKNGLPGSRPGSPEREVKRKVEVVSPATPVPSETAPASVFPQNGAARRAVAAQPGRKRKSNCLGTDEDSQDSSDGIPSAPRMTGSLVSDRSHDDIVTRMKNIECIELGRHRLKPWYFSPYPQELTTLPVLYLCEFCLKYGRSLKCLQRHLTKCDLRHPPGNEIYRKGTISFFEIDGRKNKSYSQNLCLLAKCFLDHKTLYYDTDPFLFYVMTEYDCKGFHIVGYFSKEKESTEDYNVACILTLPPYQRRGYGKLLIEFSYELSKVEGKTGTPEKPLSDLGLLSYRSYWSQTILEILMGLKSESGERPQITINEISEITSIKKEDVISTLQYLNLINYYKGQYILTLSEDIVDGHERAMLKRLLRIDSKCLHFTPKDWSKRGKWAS
T2 sequence (Q8WYB5 whole entry): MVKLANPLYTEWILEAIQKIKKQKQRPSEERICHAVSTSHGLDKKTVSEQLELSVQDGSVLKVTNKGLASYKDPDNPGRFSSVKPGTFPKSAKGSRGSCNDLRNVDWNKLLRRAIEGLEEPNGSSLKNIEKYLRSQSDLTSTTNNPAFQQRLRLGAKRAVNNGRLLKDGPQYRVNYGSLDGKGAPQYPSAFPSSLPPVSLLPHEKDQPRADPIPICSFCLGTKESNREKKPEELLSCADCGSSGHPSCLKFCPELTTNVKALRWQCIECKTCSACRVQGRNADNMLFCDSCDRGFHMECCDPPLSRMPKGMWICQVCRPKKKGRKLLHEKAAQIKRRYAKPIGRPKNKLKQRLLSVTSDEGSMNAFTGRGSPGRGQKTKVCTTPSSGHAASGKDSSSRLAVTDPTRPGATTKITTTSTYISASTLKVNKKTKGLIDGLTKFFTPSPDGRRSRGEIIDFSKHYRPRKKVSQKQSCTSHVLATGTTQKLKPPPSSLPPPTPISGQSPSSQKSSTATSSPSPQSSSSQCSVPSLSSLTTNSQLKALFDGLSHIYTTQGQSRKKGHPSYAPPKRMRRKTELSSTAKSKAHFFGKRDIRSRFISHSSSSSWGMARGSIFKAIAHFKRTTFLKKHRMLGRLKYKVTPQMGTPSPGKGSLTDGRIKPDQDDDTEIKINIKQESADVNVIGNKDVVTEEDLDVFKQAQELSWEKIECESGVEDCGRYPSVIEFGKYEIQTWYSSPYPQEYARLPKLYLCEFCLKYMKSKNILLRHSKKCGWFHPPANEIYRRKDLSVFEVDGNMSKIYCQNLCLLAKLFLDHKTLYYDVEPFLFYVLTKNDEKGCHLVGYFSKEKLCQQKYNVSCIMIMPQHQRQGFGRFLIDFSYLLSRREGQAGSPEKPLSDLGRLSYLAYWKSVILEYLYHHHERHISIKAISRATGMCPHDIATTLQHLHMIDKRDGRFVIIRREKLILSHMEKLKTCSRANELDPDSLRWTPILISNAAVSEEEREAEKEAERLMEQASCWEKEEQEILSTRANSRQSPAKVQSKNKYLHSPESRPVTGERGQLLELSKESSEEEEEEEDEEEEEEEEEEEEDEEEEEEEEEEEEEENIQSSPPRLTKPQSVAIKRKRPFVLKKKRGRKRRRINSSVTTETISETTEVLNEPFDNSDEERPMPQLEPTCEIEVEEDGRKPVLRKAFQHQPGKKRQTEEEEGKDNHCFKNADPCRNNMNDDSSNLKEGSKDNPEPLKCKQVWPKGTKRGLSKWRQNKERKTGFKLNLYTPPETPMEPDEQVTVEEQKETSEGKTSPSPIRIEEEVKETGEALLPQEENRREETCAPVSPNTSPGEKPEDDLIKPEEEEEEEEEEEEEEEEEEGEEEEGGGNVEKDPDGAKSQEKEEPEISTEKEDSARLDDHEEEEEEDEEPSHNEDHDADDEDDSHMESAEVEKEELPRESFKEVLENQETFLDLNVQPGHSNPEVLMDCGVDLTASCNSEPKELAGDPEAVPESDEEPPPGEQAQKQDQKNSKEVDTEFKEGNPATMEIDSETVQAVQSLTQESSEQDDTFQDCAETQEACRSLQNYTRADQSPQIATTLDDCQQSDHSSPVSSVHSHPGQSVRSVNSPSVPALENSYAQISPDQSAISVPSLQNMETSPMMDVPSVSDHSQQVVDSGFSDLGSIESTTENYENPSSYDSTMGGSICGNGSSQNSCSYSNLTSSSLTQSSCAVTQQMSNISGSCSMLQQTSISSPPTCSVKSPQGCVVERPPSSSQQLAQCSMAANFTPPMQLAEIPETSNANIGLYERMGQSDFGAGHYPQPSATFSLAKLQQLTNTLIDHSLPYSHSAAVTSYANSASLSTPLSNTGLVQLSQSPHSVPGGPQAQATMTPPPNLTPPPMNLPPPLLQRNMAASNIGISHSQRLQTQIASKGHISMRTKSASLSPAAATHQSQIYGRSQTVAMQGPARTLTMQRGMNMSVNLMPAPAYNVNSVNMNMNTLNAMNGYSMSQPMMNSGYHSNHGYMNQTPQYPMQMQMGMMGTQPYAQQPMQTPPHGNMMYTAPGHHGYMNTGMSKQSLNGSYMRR
Sequence of MOZ-KAT6A (Q92794 with tags, fused parts or gaps A567V): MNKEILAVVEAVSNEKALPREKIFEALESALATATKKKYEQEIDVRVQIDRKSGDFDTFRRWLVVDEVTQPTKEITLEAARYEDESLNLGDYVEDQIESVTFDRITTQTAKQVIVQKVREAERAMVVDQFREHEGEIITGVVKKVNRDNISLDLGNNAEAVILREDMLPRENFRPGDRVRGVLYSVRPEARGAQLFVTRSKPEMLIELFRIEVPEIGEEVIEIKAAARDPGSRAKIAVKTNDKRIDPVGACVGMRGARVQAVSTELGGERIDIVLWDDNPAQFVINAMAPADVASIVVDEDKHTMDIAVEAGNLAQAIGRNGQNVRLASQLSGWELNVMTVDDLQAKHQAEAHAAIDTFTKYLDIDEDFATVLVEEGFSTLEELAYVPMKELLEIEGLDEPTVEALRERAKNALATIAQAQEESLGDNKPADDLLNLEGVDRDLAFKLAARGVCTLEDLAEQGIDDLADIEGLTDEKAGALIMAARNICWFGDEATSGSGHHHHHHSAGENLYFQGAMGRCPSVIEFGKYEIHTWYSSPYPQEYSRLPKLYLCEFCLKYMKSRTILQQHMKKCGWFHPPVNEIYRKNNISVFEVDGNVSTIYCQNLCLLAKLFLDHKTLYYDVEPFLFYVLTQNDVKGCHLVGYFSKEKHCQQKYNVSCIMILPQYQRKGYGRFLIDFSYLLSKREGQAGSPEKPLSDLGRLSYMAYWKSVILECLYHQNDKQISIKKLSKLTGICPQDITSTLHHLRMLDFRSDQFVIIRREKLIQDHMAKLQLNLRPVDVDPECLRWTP
Sequence of HBO-KAT7 (O95251 with tags, fused parts or gaps): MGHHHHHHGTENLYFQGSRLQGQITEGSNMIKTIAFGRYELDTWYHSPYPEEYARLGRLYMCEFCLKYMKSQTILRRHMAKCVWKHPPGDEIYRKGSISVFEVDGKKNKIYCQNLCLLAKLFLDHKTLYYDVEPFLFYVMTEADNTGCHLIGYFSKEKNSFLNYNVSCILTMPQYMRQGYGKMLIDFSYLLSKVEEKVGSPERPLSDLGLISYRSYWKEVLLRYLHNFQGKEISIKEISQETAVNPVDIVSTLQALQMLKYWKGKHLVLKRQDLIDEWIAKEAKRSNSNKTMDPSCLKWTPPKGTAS

For orientation: IC50 means the concentration at which inhibition is half-maximal. On to `COc1cccc2onc(NS(=O)(=O)c3cccc4cc(C)cnc34)c12` [Example 73, N-(4-methoxybenzo[d]isoxazol-3-yl)-3-methyl quinoline-8-sulfonamide], for which the IC50 in test [1] is 3460 nM; in test [2], 2160 nM; in test [3], 4550 nM; in test [4] it was 4050 nM; in test [5], 508 nM; in test [6], 12500 nM. The figures for the IC50 in test [7] and in test [8] were 36700 nM and above 10000 nM, respectively.

As for `COc1cc(-c2ccccc2)cc(OC)c1S(=O)(=O)Nc1noc2cccc(OC)c12` [Example 95, 3,5-Dimethoxy-N-(4-methoxybenzo[d]isoxazol-3-yl)-[1,1-biphenyl]-4-sulfonamide], the IC50 in test [1] turned out to be 6450 nM; in test [2], 14000 nM; in test [3] it was 430 nM; in test [4] it was 1640 nM; in test [5] it was 754 nM; in test [6], 9090 nM. Further, the IC50 in test [7] was above 40000 nM; in test [8], above 10000 nM.

Regarding `COCc1cc2onc(NS(=O)(=O)c3c(OC)cccc3OC)c2cc1C` [Example 97, 2,6-Dimethoxy-N-(6-(methoxymethyl)-5-methylbenzo[d]isoxazol-3-yl)benzenesulfonamide], the IC50 in test [2] stood at 6180 nM; in test [3] it was 61 nM; in test [4], 49 nM; in test [5], 444 nM; in test [6] it was 1090 nM; in test [7], 28000 nM. Besides, the IC50 in test [8] was determined as 45 nM.

Consider `COc1cccc(OC)c1S(=O)(=O)Nc1noc2cc(-c3ncco3)cc(OC)c12` [Example 144, 2,6-Dimethoxy-N-(4-methoxy-6-(oxazol-2-yl)benzo[d]isoxazol-3-yl)benzenesulfonamide], for which the IC50 in test [2] is 11500 nM; in test [3] it was 261 nM; in test [4], 57 nM; in test [5] it was 286 nM; in test [6] it was 2950 nM; in test [7] it was 18800 nM. The half-maximal inhibitory concentration (IC50) in test [8] was found to be 128 nM.

For the compound `COc1cccc(OC)c1S(=O)(=O)Nc1noc2cc(-c3ccccn3)cc(OC)c12` [Example 146, 2,6-Dimethoxy-N-(4-methoxy-6-(pyridin-2-yl)benzo[d]isoxazol-3-yl)benzenesulfonamide], the IC50 in test [2] stood at 22000 nM; in test [3], 153 nM; in test [4], 291 nM; in test [5] it was 511 nM; in test [6], 2300 nM; in test [7], 15100 nM. For the same compound, the half-inhibitory concentration (IC50) in test [8] stood at 45 nM.

As to `COc1cccc(OC)c1S(=O)(=O)Nc1noc2cc(-c3ncco3)ccc12` [Example 147, 2,6-Dimethoxy-N-(6-(oxazol-2-yl)benzo[d]isoxazol-3-yl)benzenesulfonamide], the IC50 in test [2] was above 125000 nM; in test [3] it was 93600 nM; in test [4], above 125000 nM; in test [5], above 125000 nM; in test [6], above 40000 nM; in test [7], above 40000 nM. For the same compound, the IC50 in test [8] was above 10000 nM.

As to `COCc1cc(OC)c2c(NS(=O)(=O)c3ccc(OC)c4cccnc34)noc2c1` [Example 162, 5-methoxy-N-(4-methoxy-6-(methoxymethyl)benzo[d]isoxazol-3-yl)quinoline-8-sulfonamide], the 50% inhibitory concentration (IC50) in test [1] stood at 10600 nM; in test [2] it was 14000 nM; in test [3], 147 nM; in test [4] it was 180 nM; in test [5] it was 969 nM; in test [6], 1530 nM. In addition, the concentration for half-maximal inhibition (IC50) in test [7] is 29500 nM; in test [8] it was 144 nM.

`COCc1cc2onc(NS(=O)(=O)c3ccc(OC)cc3OC)c2cc1C` [Example 166, 2,4-dimethoxy-N-(6-(methoxymethyl)-5-methylbenzo[d]isoxazol-3-yl)benzenesulfonamide]: the IC50 in test [1] turned out to be 2920 nM; in test [2], 3090 nM; in test [3], 123 nM; in test [4], 227 nM; in test [5], 328 nM; in test [6], 3690 nM. Further, the IC50 is 33300 nM in test [7] and 398 nM in test [8].

In the case of `CCOCc1cc(OC)c2c(NS(=O)(=O)c3c(OC)cccc3OC)noc2c1` [Example 172], the IC50 in test [2] was determined as 9070 nM; in test [3], 37 nM; in test [4] it was 42 nM; in test [5] it was 426 nM; in test [6], 1450 nM; in test [7], 29200 nM. The 50% inhibitory concentration (IC50) in test [8] turned out to be 14 nM.

Consider `COCc1cc(OC)c2c(NS(=O)(=O)c3c(OC)cccc3OC)noc2c1` [Example 173, 2,6-Dimethoxy-N-(4-methoxy-6-(methoxymethyl)benzo[d]isoxazol-3-yl)benzenesulfonamide], for which the IC50 in test [1] stood at 3520 nM; in test [2], 4050 nM; in test [3], 15 nM; in test [4], 40 nM; in test [5] it was 169 nM; in test [6], 533 nM. Besides, the IC50 in test [7] was 26200 nM; in test [8] it was 20 nM.

Consider `COc1cccc(OC)c1S(=O)(=O)Nc1noc2cc(-c3ccccc3)cc(OC)c12` [Example 174, 2,6-Dimethoxy-N-(4-methoxy-6-phenylbenzo[d]isoxazol-3-yl)benzenesulfonamide], for which the IC50 in test [2] worked out at 1830 nM; in test [3], 13 nM; in test [4], 18 nM; in test [5], 31 nM; in test [6] it was 68 nM; in test [7], 1540 nM. In test [8], the IC50 was 17 nM.

As for `COc1ccccc1-c1cc(OC)c2c(NS(=O)(=O)c3c(OC)cccc3OC)noc2c1` [Example 176, 2,6-Dimethoxy-N-(4-methoxy-6-(2-methoxyphenyl)benzo[d]isoxazol-3-yl)benzenesulfonamide], the IC50 in test [2] was 5670 nM; in test [3], 30 nM; in test [4] it was 121 nM; in test [5], 138 nM; in test [6], 1070 nM; in test [7], 7610 nM. Also, in test [8], the concentration for half-maximal inhibition (IC50) is 685 nM.

Consider `COc1cccc(-c2cc(OC)c3c(NS(=O)(=O)c4c(OC)cccc4OC)noc3c2)c1` [Example 177, 2,6-Dimethoxy-N-(4-methoxy-6-(3-methoxyphenyl)benzo[d]isoxazol-3-yl)benzenesulfonamide], for which the 50% inhibitory concentration (IC50) in test [2] came to 7080 nM; in test [3], 127 nM; in test [4] it was 92 nM; in test [5], 21 nM; in test [6], 135 nM; in test [7], 1090 nM. Further, in test [8], the IC50 amounted to 1490 nM.
